Q: With `O=C(O)c1ccc(O)c(O)c1` as the compound, how does the solubility (mole fraction) (in ethanol, 293.15 K) read?
A: Its solubility (mole fraction) is 0.0302.

Q: And the solubility (mole fraction) (in ethanol, 298.15 K)?
A: Its solubility (mole fraction) is 0.041.

Q: And the solubility (mole fraction) (in ethanol, 303.15 K)?
A: Its solubility (mole fraction) is 0.0495.

Q: What about the solubility (mole fraction) (in ethanol, 308.15 K) of the same compound?
A: The solubility (mole fraction) was 0.0665.

Q: What about the solubility (mole fraction) (in ethanol, 313.15 K) of the same compound?
A: Its solubility (mole fraction) is 0.0847.

Q: And the solubility (mole fraction) (in ethanol, 318.15 K)?
A: Its solubility (mole fraction) is 0.108.

Q: And the solubility (mole fraction) (in ethyl acetate, 293.15 K)?
A: Its solubility (mole fraction) is 0.00478.

Q: And the solubility (mole fraction) (in ethyl acetate, 298.15 K)?
A: The solubility (mole fraction) was 0.00671.

Q: And the solubility (mole fraction) (in ethyl acetate, 303.15 K)?
A: The solubility (mole fraction) was 0.00906.

Q: And the solubility (mole fraction) (in ethyl acetate, 308.15 K)?
A: Its solubility (mole fraction) is 0.013.

Q: And the solubility (mole fraction) (in ethyl acetate, 313.15 K)?
A: The solubility (mole fraction) was 0.0179.

Q: And the solubility (mole fraction) (in ethyl acetate, 318.15 K)?
A: Its solubility (mole fraction) is 0.0233.

Q: What about the solubility (mole fraction) (in methanol, 293.15 K) of the same compound?
A: The solubility (mole fraction) was 0.0337.

Q: What about the solubility (mole fraction) (in methanol, 298.15 K) of the same compound?
A: The solubility (mole fraction) was 0.0451.

Q: What about the solubility (mole fraction) (in methanol, 303.15 K) of the same compound?
A: The solubility (mole fraction) was 0.0654.

Q: What about the solubility (mole fraction) (in methanol, 308.15 K) of the same compound?
A: The solubility (mole fraction) was 0.093.

Q: What about the solubility (mole fraction) (in methanol, 313.15 K) of the same compound?
A: Its solubility (mole fraction) is 0.126.

Q: What about the solubility (mole fraction) (in methanol, 318.15 K) of the same compound?
A: Its solubility (mole fraction) is 0.167.

Q: And the solubility (mole fraction) (in methyl acetate, 293.15 K)?
A: Its solubility (mole fraction) is 0.00563.

Q: What about the solubility (mole fraction) (in methyl acetate, 298.15 K) of the same compound?
A: Its solubility (mole fraction) is 0.00843.

Q: What about the solubility (mole fraction) (in methyl acetate, 303.15 K) of the same compound?
A: Its solubility (mole fraction) is 0.0115.

Q: And the solubility (mole fraction) (in methyl acetate, 308.15 K)?
A: Its solubility (mole fraction) is 0.0167.

Q: What about the solubility (mole fraction) (in methyl acetate, 313.15 K) of the same compound?
A: The solubility (mole fraction) was 0.0225.

Q: What about the solubility (mole fraction) (in methyl acetate, 318.15 K) of the same compound?
A: Its solubility (mole fraction) is 0.03.
